Data from patent US8080582B2, “Derivatives of 8-epiblechnic acid and their effects on down-regulation of endothelin (ETA) receptor mRNA” (ScinoPharm Taiwan Ltd., priority 2008, dated 2011).
“Also recorded” adds a separate entry of the source.

Experiments:
Format in all cases: cell-based
[1] = tested on: ETAR mRNA expression; assay: Real-time quantitative RT-PCR of ETAR mRNA in smooth muscle cells (A10); conditions: A10 smooth muscle cells, 0.2 mM, 48 hrs, vs DMSO control, FIG. 4, read-out: ETAR mRNA remaining after the treatment
Experimental: Extraction of cellular RNA: Subculturing smooth muscle cells to 100-mm culture dishes. After the cells had filled the culture dishes, Sal-B and its analogs were added to treat the cells for 48 hrs. After that, 1×PBS solutions were added to wash the cells three times. After adding 1 ml TRIzol, the cells were scraped off and placed in 1.5 ml micro-centrifuge tubes. Following the addition of 0.2 ml chloroform to each tube, the tubes were shaken, left at room temperature for 3 min., and run in a centrifuge at 12,000 rpm for 15 min. The supernatant liquid was removed and the cells placed in new micro-centrifuge tubes. After adding an amount of isopropyl alcohol equivalent to one-half of the volume of the supernatant liquid, and mixing until homogeneous, the samples were allowed to stand at room temperature for 10 min. The supernatant liquid was removed after centrifugation at 12,000 rpm for 10 min. 1 ml 70% alcohol was added to wash out salts, followed by centrifugation for 5 min. and removal of supernatant liquid. The samples were dissolved in 50 μl DEPC-H2O after drying.
(1) cDNA synthesis: 1 μl Random hexamer primer (20 μM) and 1 μl dNTP(10 mm) were added to 3 μg RNA, which was allowed to react at 65° C. for 5 min., and then placed on ice promptly. After the addition of 2 μl 10× reaction buffer, 0.5 μl RNaseOUT (40 unit/μl) and 1 μl SuperScript III RT (200 unit/μl), the solution was mixed until homogeneous, and allowed to react at 50° C. for 50 min. After that, the mixture was heated to 85° C. for 5 min. to terminate the enzymatic reaction. The samples were preserved at −70° C. for later use.
(2) PCR quantitative analysis: After adding 7.5 μl PCR primer mix (400 nm each) and 15 μl SYBR Green dye reagent to the 7.5 μl cDNA template, the solution was placed in Bio-Rad's iCycler for PCR reaction. The resulting data was inputted into Gene Expression Analysis for iCycler iQ Real-Time PCR Detection System for quantitative analysis of gene expression.
Furthermore, after treating vascular smooth muscle cells with 100 μg/ml of either Sal-B or EBA for 48 hrs, the identical concentrations of cellular whole RNA were sampled for the synthesis of cDNA by using reverse transcriptase. The PCR method was employed to determine the amounts of endothelin receptor mRNA expression. […] For the analysis of ETAR mRNA expression by using the real-time PCR method, vascular smooth muscle cells at full confluence 100-mm culture dishes were treated with 100 μg/ml of either Sal-B or EBA for 48 hrs. The identical concentrations of cellular whole RNA were sampled for the synthesis of cDNA by using reverse transcriptase. The real-time PCR method was used to compare the amounts of ETAR mRNA expression.
The different analogs, compounds A to F, had different effects on ETAR mRNA expression. The control group represented treating smooth muscle cells (A10) with DMSO, and the positive control group represented treating the cells with Sal-B. The smooth muscle cells were treated with 0.2 mM Sal-B and compounds A to F for 48 hrs. The identical concentrations of cellular RNA were sampled for the synthesis of cDNA by using reverse transcriptase. The real-time PCR method was employed to determine the amounts of ETAR mRNA expression. Compared with the control group, compound B had the least effect on down-regulating ETAR mRNA expression, as approximately 50% of the ETAR mRNA remained after the treatment. […]

[2] = tested on: Vascular smooth muscle cells (cell line A10); assay: MTT cell viability / observation of normal vascular smooth muscle cells (A10); conditions: 48 hrs; for Precipitation in the treated sample: dissolved in DMSO, added to A10 cells, 0.2 mM
Experimental: (§1) The cells (1×10^5 cells/well in 24-well plates) were cultured for 24 hrs. Different concentrations of Sal-B and its analogs (0, 50, 100, 150, 200, 250 μg/ml) were added to treat the cells. After treating for 48 hrs, 100 μl MTT solution was added to each well, and the plate was placed in an incubator for 1-4 hrs. After adding 400 μl DMSO to treat the cells for 30 min., 200 μl samples were collected and placed in a 96-well plate to conduct the absorption measurement at 550 nm.
Cell viability testing (MTT testing) was employed to determine the cytotoxicity of Sal-B and EBA to vascular smooth muscle cells. Vascular smooth muscle cells (cell line A10) were treated with Sal-B and EBA at concentrations of 0, 0.1, 0.2, 0.3, 0.4, and 0.5 mM. After treating for 48 hrs, MTT was added and allowed to react for 3 hrs at 37° C. Then, DMSO was added and allowed to react for 30 min., after that, the OD570 absorption values were measured. Cell viability was still 90% when the drug concentration reached 0.2 mM.
Sal-B's analogs, compounds A to F, were dissolved in DMSO, and then added to A10 cells to observe the results.

[3] = tested on: nasopharyngeal cancer cells (Hone-1); assay: MTT cell viability, nasopharyngeal cancer cells; conditions: Hone-1 cells, summary statement
Experimental: as §1
(§2) Cancer cells were treated with Sal-B and EBA at concentrations of 0, 0.1, 0.2, 0.3, 0.4, 0.5 mM. After treating for 48 hrs, MTT was added, and then allowed to react for 3 hrs at 37° C. After that, DMSO was added and allowed to react for 30 min., the OD570 absorption values were measured. Cell viability was above 80% when nasopharyngeal cancer cells (Hone-1) were treated with […] Sal-B and EBA. […] But the cell viability remained above 70% for treating with 0.1 mM and 0.2 mM EBA. Similar results were obtained when prostate cancer cells (PC-3) were treated with the drugs: Cell viability was above 80% for treating PC-3 cells with 0.2 mM Sal-B or EBA.

[4] = tested on: prostate cancer cells (PC-3); assay: MTT cell viability, prostate cancer cells; conditions: for Viability of PC-3 cells as the concentration is increased: PC-3, MTT, increasing concentration, FIG. 1
Experimental: as §1, §2
MTT testing was employed to observe the viability of cancer cells after treating with Sal-B and the six synthetic analogs.

[5] = tested on: normal mammary gland cell line (A1N4); assay: Cytotoxicity test on normal mammary gland cells; conditions: A1N4 normal mammary gland cells, FIG. 2
Experimental: as §1

[6] = tested on: PC-3 cancer cells; assay: Flow cytometry cell cycle analysis (sub-G1, apoptosis) of PC-3 cells; conditions: PC-3, 0.01 mM, 48 hrs, PI flow cytometry; control around 1.18%
Experimental: After suspending cells, the precooled 70% ethanol was used for fixing the cells. After centrifuging the mixture for 10 min. at 3,000 rpm, supernatant liquid was removed. Propidium iodide (PI) buffer (0.1% Triton X-100, 0.2 μg/ml RNase A, 40 μg/ml PI) was added, and then the solution was kept still at 37° C. for 30 min. After that, the cell cycle analysis was conducted by flow cytometry.
Flow cytometry was used to determine whether Sal-B and its analogs induced apoptosis in cancer cells. After treating PC-3 cancer cells with 0.4 mM Sal-B and EBA, and 0.01 mM compounds B and A for 48 hrs, the cells were collected and allowed to react with PI buffer for 30 min. Flow cytometry was then employed to measure the cell cycle. Approximately 5.16% of PC-3 cancer cells were at sub-G1 phase after treating with Sal-B, roughly 5.27% were at sub-G1 phase after treating with compound B, and roughly 8.54% were at sub-G1 phase after treating with compound A. However, for the control, only around 1.18% of the cells were at sub-G1 phase. Therefore, Sal-B and its analogs (compounds B and A) thus caused a significant increase in the percentage of cells at sub-G1 phase.

Row | SMILES | mrna remaining at 200 µM [1] | Precipitation in the treated sample [2] | Inhibition of growth of Hone-1 cells [3] | Cytotoxicity / cell death in A10 cells ([2]; A10 cells, 0.2 mM in DMSO) | Viability of PC-3 cells as the concentration is increased [4] | Toxicity to PC-3 cells relative to Sal-B ([4]; PC-3 cells, compared with Sal-B) | Cytotoxicity to normal cells [5] | PC-3 cancer cells at sub-G1 phase [6]
1 | COC(=O)C(Cc1ccc(OC)c(OC)c1)NC(=O)/C=C/c1cc(OC)c2c(c1)C(C(=O)NC(Cc1ccc(OC)c(OC)c1)C(=O)OC)C(c1ccc(OC)c(OC)c1)O2 (stereo not drawn) [Compound C, 2-(3,4-dimethoxyphenyl)-7-methoxy-5-{(E)-2-[1-(methoxycarbonyl)-2-(3,4-dimethoxyphenyl)-ethylcarbamoyl]-vinyl}-2,3-dihydro-benzofuran-3-carboxylic acid-1-(methoxycarbonyl)-[2-(3,4-dimethoxyphenyl)-ethyl]-amide] | < 20% |  |  |  |  |  |  | 
2 | COC(=O)C1Cc2cc(OC)c(OC)cc2CN1C(=O)/C=C/c1cc(OC)c2c(c1)C(C(=O)N1Cc3cc(OC)c(OC)cc3CC1C(=O)OC)C(c1ccc(OC)c(OC)c1)O2 (stereo not drawn) [Compound E] |  | significant precipitation |  |  |  |  |  | 
3 | COC(=O)C(Cc1ccc(OC)c(OC)c1)NC(=O)/C=C/c1ccc(OC)c2c1C(C(=O)NC(Cc1ccc(OC)c(OC)c1)C(=O)OC)C(c1ccc(OC)c(OC)c1)O2 (stereo not drawn) [Compound A, 2-(3,4-dimethoxyphenyl)-7-methoxy-4-{(E)-2-[1-(methoxycarbonyl)-2-(3,4-dimethoxyphenyl)-ethylcarbamoyl]-vinyl}-2,3-dihydro-benzofuran-3-carboxylic acid-1-(methoxycarbonyl)-[2-(3,4-dimethoxyphenyl)-ethyl]-amide] | < 20% |  | significantly inhibit the growth | high level of cell death; also recorded: relatively high cytotoxicity | led to the similar results | ten times more toxic to PC-3 cells than Sal-B | low toxicity to normal cells | roughly 8.54%
4 | COC(=O)C(Cc1ccccc1)NC(=O)/C=C/c1ccc(OC)c2c1C(C(=O)NC(Cc1ccc(OC)c(OC)c1)C(=O)OC)C(c1ccc(OC)c(OC)c1)O2 (stereo not drawn) [Compound B, 2-(3,4-dimethoxyphenyl)-7-methoxy-4-{(E)-2-[1-(methoxycarbonyl)-2-phenyl-ethylcarbamoyl]-vinyl}-2,3-dihydro-benzofuran-3-carboxylic acid-1(methoxycarbonyl)-[2-(3,4-dimethoxyphenyl)-ethyl]-amide] | ~50% | significant precipitation | significantly inhibit the growth |  | led to the similar results |  | relatively toxic to normal cells | roughly 5.27%
